From ChEMBL document CHEMBL5303573, “Mapping human microbiome drug metabolism by gut bacteria and their genes” (Nature, 2019)

Tests used:
[1] = bacteroides fragilis, 12 h, 2 µM
Description: The drug is tested on Bacteroides fragilis strain: 3397 (T10) for biotransformation. The drug concentrations were measured before and after a 12-h incubation by liquid-chromatography-coupled mass spectrometry (LC–MS)

[2] = The drug is tested on Clostridium symbiosum strain: ATCC14940 for biotransformation. The drug concentrations were measured before and after a 12-h incubation by liquid-chromatography-coupled mass spectrometry (LC–MS); details: 2 µM
[3] = The drug is tested on Eubacterium ventriosum strain: ATCC27560 for biotransformation. The drug concentrations were measured before and after a 12-h incubation by liquid-chromatography-coupled mass spectrometry (LC–MS); type: ADME; parameters: dose 2 uM, timepoint 0 vs 12 hours; details: 2 µM
[4] = The drug is tested on Collinsella intestinalis strain: DSM13280 for biotransformation. The drug concentrations were measured before and after a 12-h incubation by liquid-chromatography-coupled mass spectrometry (LC–MS); details: 2 µM
[5] = The drug is tested on Blautia hansenii strain: DSM20583 for biotransformation. The drug concentrations were measured before and after a 12-h incubation by liquid-chromatography-coupled mass spectrometry (LC–MS); details: 2 µM
[6] = The drug is tested on Ruminococcus gnavus strain: ATCC29149 for biotransformation. The drug concentrations were measured before and after a 12-h incubation by liquid-chromatography-coupled mass spectrometry (LC–MS); details: mediterraneibacter gnavus, 2 µM
[7] = The drug is tested on Bifidobacterium longum subsp. Infantis strain: CCUG52486 for biotransformation. The drug concentrations were measured before and after a 12-h incubation by liquid-chromatography-coupled mass spectrometry (LC–MS); details: 2 µM
[8] = The drug is tested on Bacteroides xylanisolvens strain: DSM18836 for biotransformation. The drug concentrations were measured before and after a 12-h incubation by liquid-chromatography-coupled mass spectrometry (LC–MS); details: 2 µM
[9] = bifidobacterium adolescentis, 12 h, 2 µM
Description: The drug is tested on Bifidobacterium adolescentis strain: ATCC 15703 for biotransformation. The drug concentrations were measured before and after a 12-h incubation by liquid-chromatography-coupled mass spectrometry (LC–MS)

[10] = The drug is tested on Bacteroides pectinophilus strain: ATCC43243 for biotransformation. The drug concentrations were measured before and after a 12-h incubation by liquid-chromatography-coupled mass spectrometry (LC–MS); details: 2 µM
[11] = The drug is tested on Bacteroides fragilis strain: ATCC43859 for biotransformation. The drug concentrations were measured before and after a 12-h incubation by liquid-chromatography-coupled mass spectrometry (LC–MS); details: 2 µM
[12] = enterocloster bolteae, 12 h, 2 µM
Description: The drug is tested on Clostridium bolteae strain: ATCCBAA-613 for biotransformation. The drug concentrations were measured before and after a 12-h incubation by liquid-chromatography-coupled mass spectrometry (LC–MS)

[13] = The drug is tested on Bacteroides sp. WH2 strain: WH2 for biotransformation. The drug concentrations were measured before and after a 12-h incubation by liquid-chromatography-coupled mass spectrometry (LC–MS); details: bacteroides sp. wh2, 12 h, 2 µM
[14] = bacteroides fragilis, 12 h, 2 µM; remark: listed apart in the source
Description: The drug is tested on Bacteroides fragilis strain: NCTC 9343 for biotransformation. The drug concentrations were measured before and after a 12-h incubation by liquid-chromatography-coupled mass spectrometry (LC–MS)

[15] = bacteroides thetaiotaomicron, 12 h, 2 µM
Description: The drug is tested on Bacteroides thetaiotaomicron strain: 3731 for biotransformation. The drug concentrations were measured before and after a 12-h incubation by liquid-chromatography-coupled mass spectrometry (LC–MS)

[16] = The drug is tested on Edwardsiella tarda strain: ATCC23685 for biotransformation. The drug concentrations were measured before and after a 12-h incubation by liquid-chromatography-coupled mass spectrometry (LC–MS); details: 2 µM
[17] = The drug is tested on Providencia stuartii strain: ATCC25827 for biotransformation. The drug concentrations were measured before and after a 12-h incubation by liquid-chromatography-coupled mass spectrometry (LC–MS); details: 2 µM
[18] = The drug is tested on Eubacterium hallii strain: DSM3353 for biotransformation. The drug concentrations were measured before and after a 12-h incubation by liquid-chromatography-coupled mass spectrometry (LC–MS); details: anaerobutyricum hallii, 2 µM
[19] = The drug is tested on Bifidobacterium breve strain: DSM20213 for biotransformation. The drug concentrations were measured before and after a 12-h incubation by liquid-chromatography-coupled mass spectrometry (LC–MS); details: 2 µM
[20] = bacteroides intestinalis, 12 h, 2 µM
Description: The drug is tested on Bacteroides intestinalis strain: DSM17393 for biotransformation. The drug concentrations were measured before and after a 12-h incubation by liquid-chromatography-coupled mass spectrometry (LC–MS)

Row | Bacterial Biotransformation [1] | Bacterial Biotransformation [2] | Bacterial Biotransformation [3] | Bacterial Biotransformation [4] | Bacterial Biotransformation [5] | Bacterial Biotransformation [6] | Bacterial Biotransformation [7] | Bacterial Biotransformation [8] | Bacterial Biotransformation [9] | Bacterial Biotransformation [10] | Bacterial Biotransformation [11] | Bacterial Biotransformation [12] | Bacterial Biotransformation [13] | Bacterial Biotransformation [14] | Bacterial Biotransformation [15] | Bacterial Biotransformation [16] | Bacterial Biotransformation [17] | Bacterial Biotransformation [18] | Bacterial Biotransformation [19] | Bacterial Biotransformation [20] | SMILES
1 | Compound NOT metabolized | Compound NOT metabolized | Compound NOT metabolized | Compound NOT metabolized | Compound NOT metabolized | Compound NOT metabolized | Compound NOT metabolized | Compound NOT metabolized | Compound NOT metabolized | Compound NOT metabolized | Compound NOT metabolized | Compound NOT metabolized | Compound NOT metabolized | Compound NOT metabolized | Compound NOT metabolized | Compound NOT metabolized | Compound NOT metabolized | Compound NOT metabolized | Compound NOT metabolized | Compound NOT metabolized | COc1cc(C(=O)NCc2ccc(OCCN(C)C)cc2)cc(OC)c1OC [TRIMETHOBENZAMIDE]
2 | Compound NOT metabolized | Compound NOT metabolized | Compound NOT metabolized | Compound NOT metabolized | Compound NOT metabolized | Compound NOT metabolized | Compound NOT metabolized | Compound NOT metabolized | Compound NOT metabolized | Compound NOT metabolized | Compound NOT metabolized | Compound NOT metabolized | Compound NOT metabolized | Compound NOT metabolized | Compound NOT metabolized | Compound NOT metabolized | Compound NOT metabolized | Compound NOT metabolized | Compound NOT metabolized | Compound NOT metabolized | CN1[C@@H]2CC[C@H]1C[C@@H](OC(=O)c1c[nH]c3ccccc13)C2 [TROPISETRON]
